What all share (type): cell-based
Data set [1] concerns Vero-34 cells, Hs-68 or Wi-38 cells. The data set can be described thus: Cytotoxicity assay ([3H]-methyl thymidine incorporation, cell proliferation). The settings on record: 50% inhibitory concentration of cell proliferation, 48 hours with compound then 18 hours [3H]-methyl thymidine; cell line not given. Here is the method:
(§1) The cytotoxicity of test compounds was evaluated according to the following procedure: Flat bottom 96 well plates were plated with 5X10E3 Vero-34 cells/well and 1X10E4 Hs-68 or Wi-38 cells/well respectively and incubated overnight at 37°C and 5% CO2/air. After incubation, the supernatant medium was removed and replaced with test compound dilutions in 2% DMEM (150ul). The cells were then incubated 48 hours in a 5% CO2 incubator at 37°C. […] Cells were then collected onto a fiberglass filter (Printed Filtermat A 1450-421 Wallac) with a Tomtec cell harvester. Suspended cells were collected directly onto filter while for adherent cells, the medium was first removed, then the cells washed with PBS and trypsinized for 2-3 minutes (50µl trypsin/well) before collecting. Filters were dried for 1 hour at 37-40°C and then placed into bags (1450-microbeta # 1450-432 Wallac) with 4.5ml of Betascint and counts obtained with Microbeta 1450 Wallac (protocol 1). The percent of cell proliferation was determined by comparison to the control (no test compound) and thereby establishing 50% inhibitory concentration is established.
Background: Dividing cells build labelled thymidine or BrdU into new DNA.

Experiment in data set [2]: as above
The settings on record: vero-34, hs-68 or wi-38; 50% inhibitory concentration of cell proliferation, 48 hours with compound then 18 hours [3H]-methyl thymidine; cell line not given. Here is the method:
as §1

A further data set concerns HCMV virus. The data set is described as follows: CMV plaque reduction assay. As to conditions: Human betaherpesvirus 5, 192 h; plaque reduction, HCMV in Hs68 cells (human foreskin fibroblast cell line), 8 days at 37°C. Here is the method:
The anti-CMV activity of test compounds was evaluated in a plaque reduction assay as follows: In 12-well tissue culture dishes, 1.5X10E5 or Hs68 cells (human […] fibroblast cell line) were plated per well with 2 ml of DMEM 10% fetal bovine serum and incubated in 5% CO2/air at 37°C overnight or until cells were ready. The medium was then removed and the cells inoculated with 0.5 ml (containing 200 pfu/ml diluted in DMEM 2% FBS) of HCMV virus in each well. After adsorption at 37°C for 2 hours, the virus was removed and cell monolayers were overlaid (1ml) with DMEM 2% FBS containing test compounds at various concentrations. The cells were then incubated at 37°C for 8 days, and then fixed with one volume (1ml) of formaldehyde 8%/water or PBS 1X for 30 minutes. The formaldehyde solution was removed and the cell monolayers were stained with crystal violet 2%/EtOH 20% for a few seconds and then rinsed with water. Monolayers were examined for the presence of plaques under a microscope, the percentage of plaque reduction determined for each compound by comparison with the untreated cells (no test compound) and the 50% inhibitory concentration (IC50) established. Ganciclovir was used as a positive control. Note: DMEM medium contained 1% glutamine and 1% pen/strep
(In general: Plaques are areas of infected cells; plaque reduction assays count them against a control.)

From patent publication EP0984967B1, “NAPHTHYRIDINE DERIVATIVES AND THEIR ANALOGUES INHIBITING CYTOMEGALOVIRUS” (BIOCHEM PHARMA INC, priority 1996, dated 1997) come the findings set out here.

≈ marks a conversion by molar mass, not a printed value.

As to “N-(2propoxybenzyl)-2-[1,6]naphthyridine-2-carboxamide [compound #26]”, the CC50 (in general, the concentration that lowers cell viability or growth by half) in data set [1] was ~1.5 µg/mL.

Take `CCOc1ccccc1CNC(=O)c1ccc2cnccc2n1` [compound #9, N-(2-ethyloxybenzyl)-2-(1,6)naphthyridinecarboxamide]: in data set [2], the CC50 at 48 h is ~6.25 µg/mL (≈ 20.3 µM). The half-inhibitory concentration (IC50) (commonly the concentration needed to halve the response being measured) in the data set on HCMV virus was ~0.1 µg/mL (≈ 0.325 µM).
